According to patent US10759826B2, “15β-substituted estrone derivatives as selective inhibitors of 17β-hydroxysteroid-dehydrogenases, method of preparation and use thereof” (USTAV ORGANICKE CHEMIE A BIOCHEMIE AV CR, V.V.I., priority 2016, dated 2020):

Columns and labels:
[1] = tested on: PC3; test: 7 day proliferation assay, PC3; type: cell-based; details: 1 μmol·l^−1, 7 days
Protocol: (§1) In this study, T47D cells were propagated in RPMI 1640 medium supplemented with 10% fetal bovine serum, 2 mmol^·l^−1 glutaMAX (Thermo Fisher Scientific, MA, USA), and penicillin/streptomycin (Thermo Fisher Scientific, Waltham, USA) and incubated in a 5% CO2-humidified atmosphere at 37° C. to the amount needed for the experiment. Two days prior to testing of compounds, growth medium was changed to medium without phenol red, supplemented with 2 mmol^·l^−1 Glutamax and 4% FBS depleted of lipophilic components (including the endogenous estrogenic substances) (Hyclone, GE Healthcare Life Sciences, USA). Two days after the medium replacement, the cells were harvested, counted and resuspended in a medium. Cells were dispensed with liquid dispenser Multidrop (Thermo Fisher Scientific, Waltham, USA), to the cell culture treated, 12-well plates (Corning Inc., NY, USA) at 100 000 cells/well in 1 mL of total media volume. […] After 7 days of cell cultivation with compounds, cells were harvested and counted. […]
(§2) Compounds 9 and 12 were tested in the proliferation assay with cell lines derived from the triple negative breast cancer (MDA-MB-231), AR-negative prostate cancer (PC3, DU145) and ovarian cancer (SK-OV-3, CaoV-3). […] At the end of the treatment, cells were harvested and counted. […]

[2] = tested on: MDA-MB-231; test: 7 day proliferation assay, MDA-MB-231; type: cell-based; details: 1 μmol·l^−1, 7 days
Protocol: as §1, §2

[3] = target: T1, progesterone receptor (PR) (Homo sapiens, UniProt P06401); test: PR luciferase reporter assay in U2OS cells; type: cell-based; details: read-out: ANTAGONIST mode PR IC50
T1 construct: expressed in transfected cells
T1 sequence (P06401 whole entry): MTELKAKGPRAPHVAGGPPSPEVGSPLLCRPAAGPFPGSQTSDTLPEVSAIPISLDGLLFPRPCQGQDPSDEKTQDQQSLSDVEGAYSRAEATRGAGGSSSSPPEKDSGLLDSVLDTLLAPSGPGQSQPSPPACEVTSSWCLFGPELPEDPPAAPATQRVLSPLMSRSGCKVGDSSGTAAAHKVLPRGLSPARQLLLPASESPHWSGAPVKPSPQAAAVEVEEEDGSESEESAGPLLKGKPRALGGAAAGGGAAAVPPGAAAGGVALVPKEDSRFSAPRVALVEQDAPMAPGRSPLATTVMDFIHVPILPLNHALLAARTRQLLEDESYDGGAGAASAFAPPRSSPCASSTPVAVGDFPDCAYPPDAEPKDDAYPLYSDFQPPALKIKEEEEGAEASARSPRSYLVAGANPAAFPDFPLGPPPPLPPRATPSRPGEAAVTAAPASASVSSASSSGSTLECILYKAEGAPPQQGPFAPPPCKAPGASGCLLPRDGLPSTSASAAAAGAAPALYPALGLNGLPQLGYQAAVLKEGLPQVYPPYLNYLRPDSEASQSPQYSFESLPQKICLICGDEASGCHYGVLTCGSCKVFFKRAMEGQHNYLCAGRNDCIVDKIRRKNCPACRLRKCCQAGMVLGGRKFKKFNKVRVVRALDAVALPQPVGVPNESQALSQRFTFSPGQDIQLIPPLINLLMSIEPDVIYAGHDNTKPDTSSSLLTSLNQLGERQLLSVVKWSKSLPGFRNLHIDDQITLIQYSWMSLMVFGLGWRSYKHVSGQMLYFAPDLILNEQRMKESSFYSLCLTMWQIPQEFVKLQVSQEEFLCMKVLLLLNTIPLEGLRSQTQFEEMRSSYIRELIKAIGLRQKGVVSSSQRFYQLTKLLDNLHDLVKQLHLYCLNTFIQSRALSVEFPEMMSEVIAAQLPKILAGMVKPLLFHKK

[4] = tested on: CaOV-3; test: 7 day proliferation assay, CaOV-3; type: cell-based; details: 1 μmol·l^−1, 7 days
Protocol: as §1, §2

[5] = target: T2, estrogen receptor α (ERα) (Homo sapiens, UniProt P03372); test: ERα luciferase reporter assay in U2OS cells; type: cell-based; details: for Emax: U2OS, read-out: efficacy of ERα activation, % of the maximal effect produced by E2; for EC50: agonist mode, U2OS reporter, 24 h; for IC50: antagonist mode, 1 nmol·l^−1 E2
T2 construct: expressed in transfected cells
T2 sequence (P03372 1-595): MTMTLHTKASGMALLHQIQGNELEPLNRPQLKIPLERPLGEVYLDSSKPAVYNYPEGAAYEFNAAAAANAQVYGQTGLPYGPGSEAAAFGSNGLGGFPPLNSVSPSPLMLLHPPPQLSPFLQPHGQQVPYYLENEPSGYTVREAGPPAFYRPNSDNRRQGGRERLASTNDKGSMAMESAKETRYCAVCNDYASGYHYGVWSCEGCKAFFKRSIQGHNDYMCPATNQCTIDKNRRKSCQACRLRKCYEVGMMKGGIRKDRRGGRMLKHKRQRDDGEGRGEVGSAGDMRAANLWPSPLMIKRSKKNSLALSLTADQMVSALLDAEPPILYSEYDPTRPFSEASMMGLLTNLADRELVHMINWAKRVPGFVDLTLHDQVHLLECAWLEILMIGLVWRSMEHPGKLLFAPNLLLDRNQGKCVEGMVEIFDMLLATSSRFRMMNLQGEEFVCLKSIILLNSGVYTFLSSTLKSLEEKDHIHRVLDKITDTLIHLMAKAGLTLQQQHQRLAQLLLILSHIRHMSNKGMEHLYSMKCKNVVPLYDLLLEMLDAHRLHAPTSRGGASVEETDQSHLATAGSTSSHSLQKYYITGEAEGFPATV

[6] = tested on: SK-OV-3; test: 7 day proliferation assay, SK-OV-3; type: cell-based; details: 1 μmol·l^−1, 7 days
Protocol: as §1, §2

[7] = target: T3, androgen receptor (AR) (Homo sapiens, UniProt P10275); test: AR luciferase reporter assay in U2OS cells; type: cell-based; details: for AR antagonism in words: testing range 10 μmol·l^−1 to 1 nmol·l^−1
T3 construct: expressed in transfected cells
T3 sequence (P10275 1-920): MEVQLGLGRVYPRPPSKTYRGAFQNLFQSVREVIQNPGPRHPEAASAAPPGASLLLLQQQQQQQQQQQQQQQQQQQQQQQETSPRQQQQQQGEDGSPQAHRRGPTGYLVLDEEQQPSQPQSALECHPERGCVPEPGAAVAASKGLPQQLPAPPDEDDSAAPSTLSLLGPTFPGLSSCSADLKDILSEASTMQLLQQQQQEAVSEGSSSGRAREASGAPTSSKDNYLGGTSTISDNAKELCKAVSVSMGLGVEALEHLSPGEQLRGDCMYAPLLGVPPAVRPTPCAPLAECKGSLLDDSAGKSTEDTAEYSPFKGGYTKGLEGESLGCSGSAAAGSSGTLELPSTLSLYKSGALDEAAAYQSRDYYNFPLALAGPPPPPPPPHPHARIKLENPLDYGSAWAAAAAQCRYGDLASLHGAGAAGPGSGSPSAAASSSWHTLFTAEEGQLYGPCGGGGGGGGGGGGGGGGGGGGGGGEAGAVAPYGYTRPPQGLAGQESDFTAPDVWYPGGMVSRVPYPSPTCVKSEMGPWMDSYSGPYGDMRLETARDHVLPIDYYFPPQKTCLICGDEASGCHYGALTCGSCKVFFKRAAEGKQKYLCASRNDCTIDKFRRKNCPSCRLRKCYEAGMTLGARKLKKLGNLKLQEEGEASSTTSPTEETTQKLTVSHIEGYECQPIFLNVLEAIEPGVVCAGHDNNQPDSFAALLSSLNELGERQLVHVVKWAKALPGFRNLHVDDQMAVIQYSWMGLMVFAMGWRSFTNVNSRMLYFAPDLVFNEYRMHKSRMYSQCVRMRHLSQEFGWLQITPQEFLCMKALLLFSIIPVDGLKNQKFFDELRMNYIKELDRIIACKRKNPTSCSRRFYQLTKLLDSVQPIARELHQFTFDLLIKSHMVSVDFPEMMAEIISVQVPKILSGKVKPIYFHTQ

[8] = tested on: U2OS cells; test: Cell viability (ATP) of unmodified U2OS cells, parallel to reporter assay; type: cell-based, human; details: Homo sapiens
Protocol: To separate the antagonist activity of test compounds from the cytotoxic effect on U2OS cells (cell line derived from osteosarcoma), an experiment for determination of cell viability was performed in parallel with the reporter assay. Original, genetically unmodified U2OS cells were grown under the same conditions as the reporter cells. These cells were further treated and incubated with the compounds in a completely identical manner and for the same time as cells in the reporter assay. At the end of the experiment, the amount of ATP was determined using BriteLite luciferase homogeneous assay as a measure of cell viability. The data were then processed together with data from the reporter assays.

[9] = tested on: DU145; test: 7 day proliferation assay, DU145; type: cell-based; details: 1 μmol·l^−1, 7 days
Protocol: as §1, §2

| Compound | % of survived cells compared to untreated samples, PC3 [1] | % of survived cells compared to untreated samples, MDA-MB-231 [2] | IC50 [3] | % of survived cells compared to untreated samples, CaOV-3 [4] | Emax [5] | EC50 [5] | IC50 [5] | ER antagonism in words ([5]; testing range 10 μmol·l^−1 to 1 nmol·l^−1) | % of survived cells compared to untreated samples, SK-OV-3 [6] | IC50 ([7]; antagonist mode, 1 nmol·l^−1 DHT) | AR antagonism in words [7] | IC50 [8] | % of survived cells compared to untreated samples, DU145 [9] |
| --- | --- | --- | --- | --- | --- | --- | --- | --- | --- | --- | --- | --- | --- |
| CCOc1ccc(CC[C@@H]2CC(=O)[C@@]3(C)CC[C@@H]4c5ccc(O)cc5CC[C@H]4[C@H]23)cc1 [Compound 12, 15β-(4-Ethoxyphenethyl)-3-hydroxy-estra-1,3,5(10)-trien-17-one] | 98% | 98% | 13.7 µM | 88% | < 40% | > 10 µM | 29 µM | antagonists of both types of receptors | 97% | 89.1 µM | antagonists of both types of receptors | > 100 µM | 86% |
| COc1ccc(CC[C@@H]2CC(=O)[C@@]3(C)CC[C@@H]4c5ccc(O)cc5CC[C@H]4[C@H]23)cc1 [Compound 9, 3-Hydroxy-15β-(4-methoxyphenethyl)-estra-1,3,5 (10)-trien-17-one] | 96% | 106% | 13.6 µM | 94% | < 40% | > 10 µM | 23.5 µM | – | 113% | – | AR antagonist | > 100 µM | 98% |
